According to ChEMBL document CHEMBL1143408 (Antimicrob Agents Chemother, 2007):

Experiments:
[1] = Drug level in human cystic fibrosis patient serum at 2000 mg/20 mins infusion; format: ADME, cell-free; details: iv, read-out: Drug uptake
Pseudomonas aeruginosa = experiment: Antimicrobial activity against Pseudomonas aeruginosa isolated from cystic fibrosis patient sputum culture
[2] = Drug level in healthy human serum at 2000 mg/20 mins infusion; format: ADME, cell-free; details: iv, read-out: Drug uptake

Structure (SMILES): C[C@H]1[C@H](NC(=O)/C(=N\OC(C)(C)C(=O)O)c2csc(N)n2)C(=O)N1S(=O)(=O)O [AZTREONAM]
- concentration at 20 min [1]: 228 µg/mL
- MIC (Pseudomonas aeruginosa): ≤ 8 ng/mL
- concentration at 20 min [2]: 242 µg/mL
